“Also recorded” adds a separate entry of the source. Ends that are not written are not given here.
Key:
[1] = test system: antigen peptide (peptide-conjugated BSA); assay: Antibody titer in blood of immunized mice by ELISA against antigen peptide; assay type: in vivo, mouse
Text: C57BL/6J male mice aged 8 weeks were purchased from Charles River Laboratories Japan, Inc. After the delivery, the mice were reared in an environment where the room temperature and the light and dark cycles were maintained, and were provided with feed and water ad libitum. As a candidate sequence leading to activation of helper T cells by MHC class II, two peptide sequences: MTGSAADTHR (SEQ ID NO: 4; hereinafter, a peptide composed of the amino acid sequence is referred to as “MTG peptide”) and RRRQASPPRR (SEQ ID NO: 5; hereinafter, a peptide composed of the amino acid sequence is referred to as “RRR peptide”), each of which is not common to VASH1 in the VASH2 sequence were selected (FIG. 1). With respect to these peptides, peptide vaccines using KLH as a carrier were constructed. Note that for the conjugation of each peptide with KLH, a glutaraldehyde method was used. When the amount of the peptide introduced into KLH was measured for each of the obtained peptide vaccines, the amount of MTG was 66 to 70 nmol/mg of the conjugate, and the amount of RRR was 62 to 76 nmol/mg of the conjugate. Subsequently, 5 μg of KLH (control) and 20 μg of each of the KLH-antigen complexes were prepared with physiological saline so that the total amount was 50 μL, respectively, whereby KLH-mixed solutions were obtained. To each of the KLH-mixed solutions (50 μL), an equal amount of complete Freund's adjuvant was added. The obtained mixture was subcutaneously administered to the mice, whereby initial immunization was carried out. After 2 weeks from the administration, booster immunization was carried out by subcutaneously administering a mixture of each of the KLH-mixed solutions (50 μL) and an equal amount of incomplete Freund's adjuvant to the mice. Further, after 2 weeks from the booster immunization (after a total of 4 weeks), an increase in the antibody titer in the blood of each of the immunized mice was verified by ELISA.
The measurement of the antibody titer by ELISA was carried out as follows. After 2 weeks from the booster immunization (after a total of 4 weeks), the blood was collected from the facial vein of each of the immunized mice, and the serum separated from the blood was subjected to ELISA. By using 50 mM carbonate buffer, peptide-conjugated BSA was prepared at 10 μg/mL, and further a recombinant VASH2 protein was prepared at 1 μg/mL, each of which was added at 50 μL/well, and the resultant was left to stand overnight at 4° C. After the solution in each well was removed, 5% skim milk was added at 150 μL/well. […] After 30 minutes, the reaction was stopped by adding 0.5 N H2SO4 at 50 μL/well, and an absorbance (450 nm) was measured using a microplate reader.

[2] = test system: mouse melanoma cells (B16F1); assay: Subcutaneous implant model, tumor growth inhibitory effect (B16F1); assay type: in vivo; details: immunized C57BL/6J mice, cells implanted s.c. on day 29, measured 14 days after implantation
Method: After 2 weeks from the administration of each peptide vaccine and incomplete Freund's adjuvant in Example 1 (on day 29 after the initial peptide vaccine administration), mouse-derived tumor cells were implanted in an immunized mouse, whereby a subcutaneous implant model was prepared. Specifically, mouse lung cancer cells (Lewis lung cancer cells (LLC)) or mouse melanoma cells (B16F1) (all have C57BL/6J as a genetic background) cultured in a RPMI+10% FBS medium were collected by centrifugation, and a cell suspension (1.0×10^8 cells/mL) was prepared with a serum-free medium, and 0.1 mL (1.0×10^7 cells/animal) of the cell suspension was implanted in a right axillary subcutaneous region of a mouse using a 27G injection needle and a syringe, whereby a subcutaneous implant model of tumor cells was prepared.

mTwist1 = assay: Gene expression in excised tumor tissue by real-time PCR, mTwist1; assay type: in vivo, mouse; details: tumor excised two weeks after implantation
Method: (§1) The mouse implanted with the tumor cells in Example 2 was sacrificed two weeks after implantation of the tumor cells, and a tumor was excised from the right axillary subcutaneous region. By using RNeasy Plus Kit (Qiagen, Inc.), extraction of the total RNA from the excised tumor and purification thereof were carried out. By using the obtained total RNA as a template, cDNA was synthesized by reverse transcription reaction. The cDNA was analyzed by performing real-time PCR using a mixed solution of the obtained cDNA and SYBR green (TAKARA BIO, Inc.).

mZeb1 = assay: Gene expression in excised tumor tissue by real-time PCR, mZeb1; assay type: in vivo, mouse; details: tumor excised two weeks after implantation
Method: as §1

[3] = test system: RH30 rhabdomyosarcoma cells; assay: In vitro wound migration method with serum of immunized mouse (RH30); assay type: cell-based, human; details: 1% serum of mouse with increased anti-VASH2 titer after vaccine; 24 and 48 hours
Method: By using the serum derived from a mouse in which an increase in the antibody titer against the recombinant human VASH2 protein by administration of the MTG peptide vaccine was confirmed, the effect on the migration ability of various types of cancer cells was examined by an in vitro wound migration method. Mouse-derived Lewis lung cancer cells and human-derived RH30 rhabdomyosarcoma cells were added to a 6-well plate at 1.0×10^6 cells each. After 24 hours, a formed cell monolayer was wounded and linearly exfoliated. After the exfoliation, the medium was replaced with fresh 0.5% FBS+RPMI medium supplemented with 1% mouse serum. At 24 hours and 48 hours after the medium replacement, the image of the cell monolayer was captured using an IX71 inverted microscope (manufactured by Olympus Corporation), and a cell migration distance of each time zone was analyzed using ImageJ software. The analysis was carried out according to the following formula. Cell migration distance (%)={(A−B)/A}×100
A: Width of initial wound, B: Width of wound after 24 hours or 48 hours

MTG peptide vaccine: MTG peptide MTGSAADTHR (SEQ ID NO: 4) conjugated with KLH as carrier by a glutaraldehyde method (also: conjugated with KLH by glutaraldehyde)
antibody titer against the antigen peptide ([1]; Example 1: C57BL/6J mice, KLH-antigen complex s.c., Freund's adjuvant, serum 2 weeks after booster (total 4 weeks)): significant concentration-dependent increase
production of an antibody specific to the antigen peptide ([1]; Example 6: C57BL/6J mice, 20 or 100 μg, Alhydrogel, day 28): promotes the production of an antibody
induced antibody binding to the antigen peptide (MTG) ([1]; Example 8: C57BL/6Jx129SVJ mice, 100 μg, Alhydrogel, day 28): induced an antibody that binds to both
tumor size (tumorigenesis), B16F1 melanoma cells [2]: marked inhibition of tumorigenesis; also recorded: marked inhibition of tumor growth
expression of mTwist1 (epithelial-mesenchymal transition marker) in tumor tissue (mTwist1): dose-dependent expression inhibitory effect; also recorded: significantly inhibited depending on the dose
expression of mZeb1 (epithelial-mesenchymal transition marker) in tumor tissue (mZeb1): dose-dependent expression inhibitory effect; also recorded: significantly inhibited depending on the dose
cell migration, human-derived RH30 rhabdomyosarcoma cells [3]: migration inhibitory effect
